{"source": "the NIST ThermoML archive (doi:10.1021/je400255c)", "key": {"[1]": {"conditions": "DTA"}, "[2]": {"assay": "Molar enthalpy of transition or fusion", "conditions": "DSC"}}, "note": "± gives the expanded uncertainty stated by the source.", "data": [{"smiles": "O=C[O-].[K+]", "note": "[potassium formate]", "values": [{"measurement": "Normal melting temperature", "setting": "[1]; Crystal 1", "value": "168.70 ± 1.5", "unit": "°C"}, {"measurement": "Triple point temperature", "setting": "[1]; Crystal 2", "value": "412.65 ± 1", "unit": "K"}, {"measurement": "Molar enthalpy of transition or fusion", "setting": "[2]; Crystal 1", "value": "2.76 ± 0.0478", "unit": "kcal/mol"}, {"measurement": "Molar enthalpy of transition or fusion", "setting": "[2]; Crystal 2", "value": "0.153 ± 0.00239", "unit": "kcal/mol"}]}]}
